# According to PMC5078040 (Oncotarget, 2016):
# Key:
# PI3Kα = molecular target: T1, PI3Kα (Mus musculus, UniProt P42337); test: PI3Ks isoform in cell EC50 assay (AKT phosphorylation, Western Blotting); format: cell-based; conditions: NIH-3T3, 20ng/ml PDGF-BB, read-out: cellular EC50 PI3K Alpha
# T1 construct: endogenous in cells; host or cells: NIH-3T3
# PI3Kβ = molecular target: T2, PI3Kβ (Mus musculus, UniProt Q8BTI9); test: as above; format: cell-based; conditions: NIH-3T3, 5μM LPA, read-out: cellular EC50 PI3K Beta
# T2 construct: endogenous in cells; host or cells: NIH-3T3
# T2 sequence (Q8BTI9 whole entry): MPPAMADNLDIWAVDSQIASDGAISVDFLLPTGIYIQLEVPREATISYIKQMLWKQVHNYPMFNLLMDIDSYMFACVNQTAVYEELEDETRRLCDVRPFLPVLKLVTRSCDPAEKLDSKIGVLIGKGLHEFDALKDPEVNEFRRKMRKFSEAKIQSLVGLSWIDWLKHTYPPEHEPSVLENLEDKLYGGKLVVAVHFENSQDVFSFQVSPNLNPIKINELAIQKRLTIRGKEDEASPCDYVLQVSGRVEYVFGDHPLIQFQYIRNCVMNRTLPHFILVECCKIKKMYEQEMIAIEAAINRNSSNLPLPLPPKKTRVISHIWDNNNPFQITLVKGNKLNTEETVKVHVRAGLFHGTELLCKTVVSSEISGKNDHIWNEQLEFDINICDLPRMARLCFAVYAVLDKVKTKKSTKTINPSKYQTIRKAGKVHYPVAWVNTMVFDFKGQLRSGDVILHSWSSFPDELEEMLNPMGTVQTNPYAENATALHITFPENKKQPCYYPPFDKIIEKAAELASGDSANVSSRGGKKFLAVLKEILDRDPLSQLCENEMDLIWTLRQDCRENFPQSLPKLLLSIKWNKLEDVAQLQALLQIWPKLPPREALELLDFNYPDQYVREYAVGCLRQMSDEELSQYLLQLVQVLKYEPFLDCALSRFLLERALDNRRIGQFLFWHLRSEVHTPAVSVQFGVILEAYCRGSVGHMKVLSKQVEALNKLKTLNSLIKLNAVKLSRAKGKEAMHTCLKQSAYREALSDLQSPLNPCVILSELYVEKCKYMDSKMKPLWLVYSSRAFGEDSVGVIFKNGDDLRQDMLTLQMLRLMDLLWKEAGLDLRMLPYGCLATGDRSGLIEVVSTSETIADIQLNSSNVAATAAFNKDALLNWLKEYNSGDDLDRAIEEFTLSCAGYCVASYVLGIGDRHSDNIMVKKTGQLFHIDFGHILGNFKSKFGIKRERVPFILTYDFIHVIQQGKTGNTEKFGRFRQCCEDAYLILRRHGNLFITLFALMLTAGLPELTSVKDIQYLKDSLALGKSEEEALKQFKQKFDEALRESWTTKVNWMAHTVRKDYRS
# T2 sequence (P26450 whole entry partner): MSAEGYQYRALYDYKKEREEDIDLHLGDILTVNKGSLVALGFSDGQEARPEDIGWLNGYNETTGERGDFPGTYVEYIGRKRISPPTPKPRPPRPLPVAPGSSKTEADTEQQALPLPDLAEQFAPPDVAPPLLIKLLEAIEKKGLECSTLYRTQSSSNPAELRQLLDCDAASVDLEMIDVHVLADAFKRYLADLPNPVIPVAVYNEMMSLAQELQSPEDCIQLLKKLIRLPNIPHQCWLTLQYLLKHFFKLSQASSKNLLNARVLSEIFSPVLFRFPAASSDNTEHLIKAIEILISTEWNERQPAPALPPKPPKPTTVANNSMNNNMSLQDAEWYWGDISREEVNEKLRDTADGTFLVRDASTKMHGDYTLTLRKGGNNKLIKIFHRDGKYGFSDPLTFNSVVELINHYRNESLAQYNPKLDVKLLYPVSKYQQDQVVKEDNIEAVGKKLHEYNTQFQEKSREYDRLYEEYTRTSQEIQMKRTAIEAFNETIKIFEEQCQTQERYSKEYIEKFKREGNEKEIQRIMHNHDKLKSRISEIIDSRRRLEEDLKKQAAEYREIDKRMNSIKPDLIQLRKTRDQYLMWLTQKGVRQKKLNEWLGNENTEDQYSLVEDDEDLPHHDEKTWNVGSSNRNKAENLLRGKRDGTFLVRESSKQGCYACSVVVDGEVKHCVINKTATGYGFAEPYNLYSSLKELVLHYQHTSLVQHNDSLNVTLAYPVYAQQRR
# AMO-1 = test: Anti-proliferative assay; format: cell-based; conditions: Homo sapiens, AMO1; AMO-1, MM; 72 hours, CellTiter-Glo
# Procedure: (§1) Cells were grown in 96-well culture plates (3000-4000/well). […] Cell proliferation was determined after treatment with compounds for 72 hours. Cell viability was measured using the CellTiter–Glo Assay Kit (Promega, USA), according to the manufacturer's instructions, and luminescence was measured in a multi-label reader (Envision, PerkinElmer, USA). Data were normalized to control groups (DMSO) and represented by the mean of three independent measurements with standard error <20%. GI50 values were calculated using Prism 5.0 (GraphPad Software, San Diego, CA).
# CMK = test: Anti-proliferative assay; format: cell-based; conditions: Homo sapiens, AML, 72 hours, CellTiter-Glo
# Procedure: as §1
# HEL = test: Anti-proliferative assay; format: cell-based; conditions: Homo sapiens, AML-M6, 72 hours, CellTiter-Glo
# Procedure: as §1
# HL-60 = test: Anti-proliferative assay; format: cell-based; conditions: Homo sapiens; HL-60, AML-M2; 72 hours, CellTiter-Glo
# Procedure: as §1
# HT = test: Anti-proliferative assay; format: cell-based; conditions: Homo sapiens, B-cell lymphoma, 72 hours, CellTiter-Glo
# Procedure: as §1
# Hs 505T = test: Anti-proliferative assay; format: cell-based; conditions: Homo sapiens, CLL, 72 hours, CellTiter-Glo
# Procedure: as §1
# JVM-2 = test: Anti-proliferative assay; format: cell-based; conditions: Homo sapiens; JVM-2, Mantle cell lymphoma; 72 hours, CellTiter-Glo
# Procedure: as §1
# MEC-1 = test: Anti-proliferative assay; format: cell-based; conditions: Homo sapiens, MEC1; MEC-1, CLL; 72 hours, CellTiter-Glo
# Procedure: as §1
# MEC-2 = test: Anti-proliferative assay; format: cell-based; conditions: Homo sapiens, MEC2; MEC-2, CLL; 72 hours, CellTiter-Glo
# Procedure: as §1
# MOLM-13 = test: Anti-proliferative assay; format: cell-based; conditions: Homo sapiens; MOLM-13, AML-M5; 72 hours, CellTiter-Glo
# Procedure: as §1
# MOLM-14 = test: Anti-proliferative assay; format: cell-based; conditions: Homo sapiens; MOLM-14, AML-M5; 72 hours, CellTiter-Glo
# Procedure: as §1
# MV4-11 = test: Anti-proliferative assay; format: cell-based; conditions: Homo sapiens; MV4-11, AML; 72 hours, CellTiter-Glo
# Procedure: as §1
# NALM-6 = test: Anti-proliferative assay; format: cell-based; conditions: Homo sapiens, 72 hours, CellTiter-Glo
# Procedure: as §1
# NB4 = test: Anti-proliferative assay; format: cell-based; conditions: Homo sapiens; NB4, AML-3; 72 hours, CellTiter-Glo
# Procedure: as §1
# NOMO-1 = test: Anti-proliferative assay; format: cell-based; conditions: Homo sapiens; NOMO-1, AML-M5; 72 hours, CellTiter-Glo
# Procedure: as §1
# Namalwa = test: Anti-proliferative assay; format: cell-based; conditions: Homo sapiens, Burrkit lymphoma, 72 hours, CellTiter-Glo
# Procedure: as §1
# OCI-AML-2 = test: Anti-proliferative assay; format: cell-based; conditions: Homo sapiens, OCI-AML2; OCI-AML-2, AML-M4; 72 hours, CellTiter-Glo
# Procedure: as §1
# OCI-AML-3 = test: Anti-proliferative assay; format: cell-based; conditions: Homo sapiens; OCI-AML-3, AML-M4; 72 hours, CellTiter-Glo
# Procedure: as §1
# PF382 = test: Anti-proliferative assay; format: cell-based; conditions: Homo sapiens, PF-382; PF382, ALL; 72 hours, CellTiter-Glo
# Procedure: as §1
# RPMI8226 = test: Anti-proliferative assay; format: cell-based; conditions: Homo sapiens, RPMI-8226; RPMI8226, MM; 72 hours, CellTiter-Glo
# Procedure: as §1
# Ramos(new) = test: Anti-proliferative assay; format: cell-based; conditions: Homo sapiens, Burrkit lymphoma, 72 hours, CellTiter-Glo
# Procedure: as §1
# SKM-1 = test: Anti-proliferative assay; format: cell-based; conditions: Homo sapiens; SKM-1, AML-M5; 72 hours, CellTiter-Glo
# Procedure: as §1
# U937 = test: Anti-proliferative assay; format: cell-based; conditions: Homo sapiens, U-937; U937, AML; 72 hours, CellTiter-Glo
# Procedure: as §1
# CLL patient primary cell = test: Anti-proliferative efficacy against patient primary cells; format: cell-based; conditions: Homo sapiens
# Procedure: Peripheral blood mononuclear cells (PBMCs) from individuals with CLL were isolated by density centrifugation through Ficoll and frozen for each subject. Those subjects with low white counts whose CLL cell purity was expected to be < 85% underwent B cell isolation using RosetteSep. The protocol was approved by the Dana-Farber Harvard Cancer Center Institutional Review Board and all subjects signed written informed consent prior to participation.
# as §1
# AML patient primary cell = test: as above; format: cell-based; conditions: Homo sapiens
# Procedure: Mononuclear cells were isolated from AML patients. Mononuclear cells were isolated by density gradient centrifugation through Ficoll-Plaque Plus (Amersham Pharmacia Biotech AB, Uppsala, Sweden) at 2000 rpm for 30 minutes, followed by two washes in 1X PBS. Freeze-thawed cells were then cultured in liquid culture (DMEM, supplemented with 20% FBS). All blood and bone marrow samples from AML patients were obtained through written consent under approval of the Dana Farber Cancer Institute Institutional Review Board. The ethics committees approved the consent procedure.
# as §1
# PI3Kγ = PI3Kγ (Mus musculus, UniProt Q9JHG7); test: cell-based
# Sequence of PI3Kγ (Q9JHG7 whole entry): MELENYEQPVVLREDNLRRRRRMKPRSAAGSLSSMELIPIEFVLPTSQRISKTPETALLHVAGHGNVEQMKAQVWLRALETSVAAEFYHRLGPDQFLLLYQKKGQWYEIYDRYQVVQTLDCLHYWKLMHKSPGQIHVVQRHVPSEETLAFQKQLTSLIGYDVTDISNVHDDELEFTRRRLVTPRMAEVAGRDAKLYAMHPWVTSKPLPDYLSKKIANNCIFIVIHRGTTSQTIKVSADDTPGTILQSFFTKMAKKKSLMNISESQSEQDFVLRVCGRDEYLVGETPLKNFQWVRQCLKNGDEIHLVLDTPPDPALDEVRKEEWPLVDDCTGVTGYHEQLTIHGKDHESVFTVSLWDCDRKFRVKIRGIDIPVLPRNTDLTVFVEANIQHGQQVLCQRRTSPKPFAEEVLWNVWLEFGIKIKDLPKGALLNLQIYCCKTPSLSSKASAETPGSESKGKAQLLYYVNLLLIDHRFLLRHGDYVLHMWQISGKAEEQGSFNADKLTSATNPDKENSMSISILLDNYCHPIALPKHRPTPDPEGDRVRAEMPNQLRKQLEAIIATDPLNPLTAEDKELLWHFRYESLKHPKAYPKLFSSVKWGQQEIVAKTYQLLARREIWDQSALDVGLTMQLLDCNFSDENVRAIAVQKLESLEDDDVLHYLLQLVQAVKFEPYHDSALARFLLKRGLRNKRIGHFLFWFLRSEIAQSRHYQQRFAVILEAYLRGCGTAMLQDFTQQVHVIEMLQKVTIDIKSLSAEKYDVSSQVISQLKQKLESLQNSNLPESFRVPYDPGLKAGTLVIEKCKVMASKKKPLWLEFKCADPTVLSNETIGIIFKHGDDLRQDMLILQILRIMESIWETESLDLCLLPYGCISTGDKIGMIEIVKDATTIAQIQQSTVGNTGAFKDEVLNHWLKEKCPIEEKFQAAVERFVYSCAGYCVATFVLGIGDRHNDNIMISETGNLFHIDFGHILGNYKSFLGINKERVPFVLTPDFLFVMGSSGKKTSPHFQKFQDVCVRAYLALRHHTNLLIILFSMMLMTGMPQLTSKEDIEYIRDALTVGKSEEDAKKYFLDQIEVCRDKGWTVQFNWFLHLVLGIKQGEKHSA
# T1 sequence (P42337 whole entry, canonical isoform): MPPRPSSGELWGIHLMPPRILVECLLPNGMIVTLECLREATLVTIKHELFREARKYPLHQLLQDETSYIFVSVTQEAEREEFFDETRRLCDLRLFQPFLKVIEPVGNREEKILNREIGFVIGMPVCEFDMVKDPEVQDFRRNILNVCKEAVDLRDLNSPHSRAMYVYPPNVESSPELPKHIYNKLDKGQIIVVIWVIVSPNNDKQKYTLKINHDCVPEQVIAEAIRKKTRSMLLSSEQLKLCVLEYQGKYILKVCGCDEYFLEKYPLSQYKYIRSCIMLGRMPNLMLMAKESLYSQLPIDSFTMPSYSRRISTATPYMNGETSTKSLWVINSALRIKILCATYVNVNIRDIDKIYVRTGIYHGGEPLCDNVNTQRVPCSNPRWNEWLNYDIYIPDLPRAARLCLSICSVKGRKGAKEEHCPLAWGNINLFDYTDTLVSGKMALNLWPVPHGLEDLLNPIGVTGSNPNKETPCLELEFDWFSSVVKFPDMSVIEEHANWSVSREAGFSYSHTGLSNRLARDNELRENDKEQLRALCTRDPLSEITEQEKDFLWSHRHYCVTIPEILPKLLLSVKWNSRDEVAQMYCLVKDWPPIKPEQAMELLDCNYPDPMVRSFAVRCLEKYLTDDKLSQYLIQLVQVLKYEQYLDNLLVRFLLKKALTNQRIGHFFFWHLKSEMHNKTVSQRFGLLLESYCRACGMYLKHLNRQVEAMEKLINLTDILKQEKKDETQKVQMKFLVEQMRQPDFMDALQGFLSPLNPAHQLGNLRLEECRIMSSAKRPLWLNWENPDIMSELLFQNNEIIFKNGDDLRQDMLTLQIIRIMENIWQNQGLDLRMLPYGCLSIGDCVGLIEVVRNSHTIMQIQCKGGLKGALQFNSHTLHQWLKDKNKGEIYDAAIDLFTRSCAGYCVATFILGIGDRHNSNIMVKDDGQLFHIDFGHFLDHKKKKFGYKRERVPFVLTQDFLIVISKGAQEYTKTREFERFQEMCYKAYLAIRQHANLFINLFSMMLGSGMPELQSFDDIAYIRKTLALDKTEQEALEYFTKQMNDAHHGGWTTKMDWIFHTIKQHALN
# T1 sequence (P26450 whole entry partner, canonical isoform): as the sequence (P26450 whole entry partner) above
SMILES,EC50 (PI3Kα) [nM],EC50 (PI3Kβ) [nM],GI50 (AMO-1) [nM],GI50 (CMK) [nM],GI50 (HEL) [nM],GI50 (HL-60) [nM],GI50 (HT) [nM],GI50 (JVM-2) [nM],GI50 (MOLM-13) [nM],GI50 (MOLM-14) [nM],GI50 (MV4-11) [nM],GI50 (NALM-6) [nM],GI50 (NB4) [nM],GI50 (NOMO-1) [nM],GI50 (Namalwa) [nM],GI50 (OCI-AML-2) [nM],GI50 (OCI-AML-3) [nM],GI50 (PF382) [nM],GI50 (RPMI8226) [nM],GI50 (Ramos(new)) [nM],other results
"CC[C@H](Nc1ncnc2[nH]cnc12)c1nc2cccc(F)c2c(=O)n1-c1ccccc1 [CAL-101, Idelalisib]",> 3000,> 3000,> 10000,> 10000,> 10000,> 10000,> 10000,> 10000,> 10000,7800,> 10000,> 10000,> 10000,> 10000,> 10000,> 10000,2400,> 10000,> 10000,> 10000,"GI50 (Hs 505T): > 10000 nM; GI50 (MEC-1): > 10000 nM; GI50 (MEC-2): > 10000 nM; GI50 (SKM-1): > 10000 nM; GI50 (U937): > 10000 nM; GI50 (CLL patient primary cell; patient primary cell CLL16): > 10000 nM; GI50 (CLL patient primary cell; patient primary cell CLL18): > 10000 nM; GI50 (CLL patient primary cell; patient primary cell CLL19): > 10000 nM; GI50 (AML patient primary cell; AML1, patient primary cell AML1): > 10000 nM; GI50 (AML patient primary cell; AML3, patient primary cell AML3): > 10000 nM; GI50 (AML patient primary cell; patient primary cell AML2): 1010 nM; GI50 (AML patient primary cell; patient primary cell AML4): > 10000 nM; GI50 (AML patient primary cell; patient primary cell AML5): > 10000 nM; GI50 (AML patient primary cell; patient primary cell AML6): > 10000 nM; EC50 (PI3Kγ): 2320 nM"
CS(=O)(=O)N1CCN(Cc2cc3nc(-c4cccc5[nH]ncc45)nc(N4CCOCC4)c3s2)CC1 [GDC-0941],624,176,300,300,> 10000,160,500,> 10000,150,300,1400,390,1000,1000,390,2000,730,460,2600,2100,GI50 (SKM-1): 540 nM; GI50 (U937): 1600 nM
